Results from US6770738B1, “Higher order structure and binding of peptide nucleic acids” (ISIS Pharmaceuticals, Inc., priority 1992, dated 2004).

Test system: Taq DNA polymerase primer extension on pAIOKS
Test: Inhibition of Taq DNA polymerase primer extension by PNA
Assay type: biochemical
Conditions: pre-formed complex, 1 ug PNA
Experimental: A mixture of 100 500 ng Pvull cleaved plasmid pAIOKS, 0.1 ug M13 reverse primer and 1 ug of PNA T10-LysNH2(SEQ ID NO:2) in 10 ul buffer ([…], pH 8.3, 50 mM KCl, 1.5 mM MgCl2, 0.1 mg/ml gelatine) was incubated for 5 min at 90° C. and then for 60 min at 37° C. Subsequently, 1 U of Taq polymerase, 1 ul dCTP (100 uM), dGTP (100 uM), dTTP (100 uM) and ^32 P-dATP (1 uCi) were added and the incubation continued for 5 min at 20° C. Following the addition of 2 ul dATP, dCTP, dGTP, dTTP (1 mM each), the sample was incubated for 15 min at 60° C. The DNA was precipitated with ethanol and the samples treated as described for Example 18. The results are shown in FIG. 19: Lane 1: pTIOKS was cut with PvuII and no PNA was present. Lane 2: same as lane one with PNA present. Lane 3: no PNA and PTIOKS was cut with BamHl.

Substance: H-T10LysNH2 [PNA H-T10-LysNH2]
- primer extension product of Taq DNA polymerase: a product corresponding in length to blockage at the PNA was produced
